From PubChem BioAssay AID206 (DTP/NCI, 2004) come the findings set out here.

Values joined by “and” are separate entries in the source; they are usually repeats but may differ in a detail not shown here. Equal values may be shown once. Results filed as inconclusive are left out.

This test has as its system nude mice, HT29 intrarenal xenograft, tumor weight T/C. The experiment in a line: NCI In Vivo Anticancer Drug Screen. Data for tumor model HT29;CX-1 Human Adenocarcinoma (MER+) (intrarenal inoculation) in NU/NU Swiss (nude) mice. The conditions noted are these: endpoint: mean tumor weight change, higher = larger tumour. The method in brief:
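Compounds were given to mice carrying transplantable tumors; a vehicle-dosed group served as control. The endpoint measured in each group was compared as a T/C quotient.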

[1] abbreviates: dose: 100.0 mg/kg/injection, schedule: Q01DX010 (sc), vehicle: saline with Tween-80.
Where [2] appears, read: dose: 200.0 mg/kg/injection, schedule: Q01DX010 (sc), vehicle: saline with Tween-80.
[3] abbreviates: dose: 400.0 mg/kg/injection, schedule: Q01DX010 (sc), vehicle: saline with Tween-80.
Setting [4] is: dose: 800.0 mg/kg/injection, schedule: Q01DX010 (sc), vehicle: saline with Tween-80.
[5] abbreviates: dose: 4.0 mg/kg/injection, schedule: Q01DX010 (sc), vehicle: water.
Where [6] appears, read: dose: 100.0 mg/kg/injection, schedule: Q04DX004 (sc), vehicle: water.

Consider `CC(=O)OC1=NC(C)c2c1cc(OC(C)=O)[nH]c2=O` (stereo unspecified), for which the T/C (dose: 225.0 mg/kg/injection, schedule: Q04DX004 (sc), vehicle: Klucel (hydroxypropylcellulose) (HPC)) was 108 % of control and the T/C (dose: 900.0 mg/kg/injection, schedule: Q04DX004 (sc), vehicle: Klucel (hydroxypropylcellulose) (HPC)) was 58 % of control.

`CC1=CC(=NN=c2cc(C)n([O-])c(C)c2)C=C(C)[N+]1=O`: the T/C was 73 % of control (dose: 100.0 mg/kg/injection, schedule: Q04DX004 (sc), vehicle: suspension in saline); 48 % of control (dose: 200.0 mg/kg/injection, schedule: Q04DX004 (sc), vehicle: suspension in saline); 40 % of control (dose: 400.0 mg/kg/injection, schedule: Q04DX004 (sc), vehicle: suspension in saline); 39 % of control (dose: 800.0 mg/kg/injection, schedule: Q04DX004 (sc), vehicle: suspension in saline).

With `CCCCCCCCCCCCCCCCS(=O)CC(O)COC(=O)c1ccc(C(=O)OCC(O)CS(=O)CCCCCCCCCCCCCCCC)cc1` (stereo unspecified), the T/C runs as follows: (dose: 50.0 mg/kg/injection, schedule: Q01DX010 (sc), vehicle: saline + Tween-80 + alcohol) 114 % of control; (dose: 400.0 mg/kg/injection, schedule: Q01DX010 (sc), vehicle: saline + Tween-80 + alcohol) 93 % of control and 110 % of control.

For `N#CC(C#N)=C/C=C/c1cccc([N+](=O)[O-])c1`, the T/C runs as follows: (dose: 100.0 mg/kg/injection, schedule: Q01DX010 (sc), vehicle: Klucel (hydroxypropylcellulose) (HPC)) 40 % of control; (dose: 200.0 mg/kg/injection, schedule: Q01DX010 (sc), vehicle: Klucel (hydroxypropylcellulose) (HPC)) 38 % of control; (dose: 400.0 mg/kg/injection, schedule: Q01DX010 (sc), vehicle: Klucel (hydroxypropylcellulose) (HPC)) 74 % of control; (dose: 800.0 mg/kg/injection, schedule: Q01DX010 (sc), vehicle: Klucel (hydroxypropylcellulose) (HPC)) 61 % of control.

`Cc1ncc(CNC(=O)N(CCCl)N=O)c(N)n1`: the T/C was 55 % of control (dose: 9.38 mg/kg/injection, schedule: Q04DX004 (sc), vehicle: saline) and 39 % of control (dose: 18.75 mg/kg/injection, schedule: Q04DX004 (sc), vehicle: saline).

Turning to `CCS/C(SC)=C(/c1ccccc1)[P+](c1ccccc1)(c1ccccc1)c1ccccc1`, where the note is “dose: 18.75 mg/kg/injection, schedule: Q04DX004 (sc), vehicle: Klucel (hydroxypropylcellulose) (HPC)”, the T/C is 93 % of control.

For `COc1cc(C[C@H]2c3cc(OC)c(OC)cc3CCN2C)c(Oc2cc3c(cc2OC)-c2c(OC)c(OC)cc4c2[C@H](C3)N(C)CC4)cc1OC`, the T/C runs as follows: under setting [1], 100 % of control; under setting [2], 45 % of control; under setting [3], 67 % of control; under setting [4], 63 % of control.

On to `COc1cccc2c1C(=O)c1c(O)c3c(c(O)c1C2=O)C[C@@](O)(/C(CO)=N/NC(=O)c1ccc(Cl)c(Cl)c1)C[C@@H]3OC1CC(N)C(O)C(C)O1` (stereo partly specified), for which the T/C reads like this: under setting [5], 226 % of control; (dose: 8.0 mg/kg/injection, schedule: Q01DX010 (sc), vehicle: water) 88 % of control; (dose: 20.0 mg/kg/injection, schedule: Q04DX004 (sc), vehicle: water) 113 % of control; (dose: 40.0 mg/kg/injection, schedule: Q04DX004 (sc), vehicle: water) 59 % of control.

Regarding `Nc1nc([Se])c2ncn(C3OC(CO)C(O)C3O)c2n1` (stereo unspecified), the T/C by setting is: (dose: 2.0 mg/kg/injection, schedule: Q01DX010 (sc), vehicle: saline) 98 % of control; (dose: 8.0 mg/kg/injection, schedule: Q01DX010 (sc), vehicle: saline) 242 % of control; (dose: 16.0 mg/kg/injection, schedule: Q01DX010 (sc), vehicle: saline) 202 % of control.

Take `CC(C)=CC(=O)OC1C2C(C)=CC(=O)C(O)C2(C)C2C3(O)OCC24C(CC(=O)OC14)C(C)C3O` (stereo unspecified): the T/C is, setting by setting: (dose: 1.25 mg/kg/injection, schedule: Q04DX004 (sc), vehicle: distilled water + Tween-80) 67 % of control and 76 % of control; (dose: 1.25 mg/kg/injection, schedule: Q04DX004 (sc), vehicle: saline with Tween-80) 70 % of control; (dose: 5.0 mg/kg/injection, schedule: Q04DX004 (sc), vehicle: saline with Tween-80) 44 % of control.

In the case of `CCCCCCCCCCCCCCC/C([O-])=N/[N+](C)(C)CC(C)O` (stereo unspecified), the T/C is, setting by setting: (dose: 50.0 mg/kg/injection, schedule: Q04DX004 (sc), vehicle: Klucel (hydroxypropylcellulose) (HPC)) 106 % of control; (dose: 100.0 mg/kg/injection, schedule: Q04DX004 (sc), vehicle: Klucel (hydroxypropylcellulose) (HPC)) 103 % of control; (dose: 200.0 mg/kg/injection, schedule: Q04DX004 (sc), vehicle: Klucel (hydroxypropylcellulose) (HPC)) 86 % of control; (dose: 400.0 mg/kg/injection, schedule: Q04DX004 (sc), vehicle: Klucel (hydroxypropylcellulose) (HPC)) 110 % of control.

`Nc1cc(Cl)c2[nH]cnc2n1`: the T/C is 160 % of control under setting [6] and 96 % of control (dose: 400.0 mg/kg/injection, schedule: Q04DX004 (sc), vehicle: water).

Consider `C[C@]12CCC(=O)C=C1CC[C@@H]1[C@@H]2[C@@H](O)C[C@@]2(C)[C@H]1CC[C@]2(O)C(=O)CO`, for which, under “dose: 600.0 mg/kg/injection, schedule: Q04DX004 (sc), vehicle: Klucel (hydroxypropylcellulose) (HPC)”, the T/C is 18 % of control and 26 % of control.

In the case of `NC(=O)/C=C/c1c[nH]c2nccnc12`, the T/C runs as follows: (dose: 25.0 mg/kg/injection, schedule: Q04DX004 (sc), vehicle: water) 114 % of control; (dose: 50.0 mg/kg/injection, schedule: Q04DX004 (sc), vehicle: water) 64 % of control; under setting [6], 86 % of control; (dose: 200.0 mg/kg/injection, schedule: Q04DX004 (sc), vehicle: water) 102 % of control.

In the case of `CNNCc1ccc(C(=O)NC(C)C)cc1`, the T/C (dose: 50.0 mg/kg/injection, schedule: Q01DX010 (sc), vehicle: saline) is 194 % of control; the T/C (dose: 200.0 mg/kg/injection, schedule: Q01DX010 (sc), vehicle: saline) is 63 % of control and 77 % of control.

For `COc1cccc2c1C(=O)c1c(O)c3c(c(O)c1C2=O)C[C@@](O)(C(=O)CO)C[C@@H]3OC1CC(N(C)C)C(O)C(C)O1` (stereo partly specified), the T/C is, setting by setting: (dose: 1.0 mg/kg/injection, schedule: Q01DX010 (sc), vehicle: water) 19 % of control; (dose: 2.0 mg/kg/injection, schedule: Q01DX010 (sc), vehicle: water) 94 % of control; under setting [5], 29 % of control.

Regarding `CC(Cc1ccc(O)c(O)c1)C(C)Cc1ccc(O)c(O)c1` (stereo unspecified), the T/C (dose: 600.0 mg/kg/injection, schedule: Q04DX004 (sc), vehicle: saline + alcohol) is 68 % of control; the T/C (dose: 900.0 mg/kg/injection, schedule: Q04DX004 (sc), vehicle: saline + alcohol) is 102 % of control; the T/C (dose: 1800.0 mg/kg/injection, schedule: Q04DX004 (sc), vehicle: saline + alcohol) is 97 % of control.

Turning to `CC(=O)O[C@@H]1[C@@H](O)C2=C3[C@]4(C)[C@@H]1C(C)(C)C(=O)C[C@@H]4[C@]3(O)[C@H](OC(C)=O)[C@@]1(C[C@@H]1C)C2=O`, the T/C is 77 % of control (dose: 12.5 mg/kg/injection, schedule: Q01DX010 (sc), vehicle: saline with Tween-80); 122 % of control (dose: 25.0 mg/kg/injection, schedule: Q01DX010 (sc), vehicle: saline with Tween-80); 26 % of control (dose: 50.0 mg/kg/injection, schedule: Q01DX010 (sc), vehicle: saline with Tween-80); 68 % of control under setting [1].

Consider `C[C@H](CCC[C@H](C)OS(=O)(=O)c1ccccc1)OS(=O)(=O)c1ccccc1`, for which the T/C (dose: 75.0 mg/kg/injection, schedule: Q04DX004 (sc), vehicle: saline with Tween-80) is 49 % of control and the T/C (dose: 150.0 mg/kg/injection, schedule: Q04DX004 (sc), vehicle: saline with Tween-80) was 35 % of control.

In the case of `O=C(CO)c1ccc([N+](=O)[O-])cc1`, the T/C was 63 % of control under setting [1], 70 % of control under setting [2], 122 % of control under setting [3] and 75 % of control under setting [4].

As to `CCCCNC(C)[C@]1(O)Cc2c(O)c3c(c(O)c2[C@@H](OC2CC(N)C(O)C(C)O2)C1)C(=O)c1c(OC)cccc1C3=O` (stereo partly specified), the T/C reads like this: (dose: 3.12 mg/kg/injection, schedule: Q01DX010 (sc), vehicle: saline) 179 % of control; (dose: 12.5 mg/kg/injection, schedule: Q01DX010 (sc), vehicle: saline) 103 % of control; (dose: 25.0 mg/kg/injection, schedule: Q01DX010 (sc), vehicle: saline) 94 % of control.
